{"source": "patent US11077136B2", "about": "“Compositions for the skin” (BIOIBERICA, S.A.U., priority 2016, dated 2021)", "system": "Human dermal fibroblasts (HDF)", "assay": "In vitro wound closure (healing activity) test, area covered with cells", "type": "cell-based", "conditions": "48 hours; O-3 0.156 mg/mL, HA 0.0017 mg/mL, DS 0.0004 mg/mL, N 0.0818 mg/mL, ZnO 0.0027 mg/mL; FIG. 4 and 5; p<0.05 where significant", "text": "Human dermal fibroblasts (HDF) were used, which were cultivated in dishes with 24 wells with a surface area of 1.99 cm^2, with a density of 7×10^4 cells/well. A mark was made in a straight line approximately 2 mm wide on the surface of the single layer of cells using a sterile plastic tip, creating an area free of cells. […]\nThe cells were then allowed to migrate to the center of the dish, to cover the area free of cells, in the presence of the compounds being studied, and the area covered with cells was quantified after 48 hours using the TIRF Automated Inverted Microscope—ScanR Olympus […] and a 4× objective lens (total amplification 40×). […]\nTo determine the healing activity of each treatment, the area covered by cells was quantified, in μm^2, before (T0 h) and after (48 h) the treatment, using image analysis using the software Image J. The results were compared with those obtained for the negative and positive controls.", "data": [{"smiles": "[O]=[Zn]", "note": "[ZnO, Zinc oxide]", "values": [{"measurement": "increase in healing (area covered with cells) versus negative control", "value": "did not cause a significant increase in healing"}]}]}
